In brackets after ≈: the same amount, converted by molar mass.
Columns and labels:
[1] = Solubility in commonly used solvents for oral administration; format: physicochemical
[2] = test system: S. aureus ATCC29213; experiment: IM032 staphyloxanthin production inhibition; format: cell-based; settings: Staphylococcus aureus, ATCC 29213 / MSSA
Experimental: (§1) This study aimed to evaluate IM032 for its in vitro efficacy to inhibit the production of staphyloxanthin in different strains of S. aureus.
(§2) The negative control was dimethyl sulfoxide (DMSO) which was used to prepare stock solutions and dilutions; positive control in this test was S. aureus strain FPR3757 treated with IM032.
(§3) The test item was dissolved at 44.9 mg/mL in DMSO at 37° C., aliquoted into several tubes, and stored at −20° C. until use. On the day of testing, a stock solution was serially diluted to testing concentrations with DMSO. All solutions were vortexed and mixed with a pipette to achieve homogeneity immediately before dilution. A correction factor for purity was not applied to the test item preparations.
(§4) Each test item solution (6 μL) was combined with 0.6 mL of S. aureus culture in brain heart infusion broth (CFU per well=1×10^7). 12-wells repeats were performed for each concentration in 96-well 2-mL plates. The plates were then incubated in a shaker at 37° C., 250 rpm for 24 hours. The bacteria were centrifuged at 4,000 rpm for 10 min. Next, the bacteria from 4-wells were combined and were washed twice with PBS. Staphyloxanthin was extracted with 300 μL of methanol in a water bath at 60° C. for 1 hour. After centrifugation, 100 μL of supernatant was transferred to a 96-well cell culture plate and OD450 was measured. The relative pigment production at each tested concentration was calculated as follows: […]
(§5) The IC50 for each test was determined based on the calculated inhibition ratio from above with Prism 6.0 by employing a non-linear regression (four parameters) fitting method with assigned bottom and top at 0.05 and 0.95 respectively. The IC50 presented is the best-fit value.
(§6) S. aureus strains (ATCC29213, HG003, Mu3, SH1000, and COL) were treated with IM032 at final concentrations of 4,000, 1,000, 250, 63, 16, 4 and 1 nM (FIG. 7A). S. aureus strains (JE2, USA300-3, LAC, ST239III and Newman) were treated with IM032 at final concentrations of 250, 63, 16, 4, 1, 0.2 and 0.06 nM (FIG. 7B). […] The determined IC50 values of the tested strains range from 1.2 to 70 nM (Tables 6 and 7).

[3] = test system: S. aureus Mu3; experiment: IM032 staphyloxanthin production inhibition; format: cell-based; settings: Staphylococcus aureus
Experimental: as §1, §2, §3, §4, §5, §6

[4] = test system: S. aureus SH1000; experiment: IM032 staphyloxanthin production inhibition; format: cell-based; settings: Staphylococcus aureus, MSSA
Experimental: as §1, §2, §3, §4, §5, §6

[5] = test system: S. aureus Newman; experiment: IM032 staphyloxanthin production inhibition; format: cell-based; settings: Staphylococcus aureus, MSSA / NEWMAN
Experimental: as §1, §2, §3, §4, §5, §6

[6] = test system: S. aureus USA300-3; experiment: IM032 staphyloxanthin production inhibition; format: cell-based; settings: Staphylococcus aureus
Experimental: as §1, §2, §3, §4, §5, §6

[7] = test system: S. aureus HG003; experiment: IM032 staphyloxanthin production inhibition; format: cell-based; settings: Staphylococcus aureus, MSSA
Experimental: as §1, §2, §3, §4, §5, §6

[8] = test system: S. aureus FPR3757; experiment: IM032 staphyloxanthin production inhibition; format: cell-based; settings: Staphylococcus aureus
Experimental: as §1, §2, §3, §4, §5, §6

[9] = test system: S. aureus JE2; experiment: IM032 staphyloxanthin production inhibition; format: cell-based; settings: Staphylococcus aureus
Experimental: as §1, §2, §3, §4, §5, §6

[10] = test system: S. aureus LAC; experiment: IM032 staphyloxanthin production inhibition; format: cell-based; settings: Staphylococcus aureus
Experimental: as §1, §2, §3, §4, §5, §6

[11] = test system: S. aureus ST239III; experiment: IM032 staphyloxanthin production inhibition; format: cell-based; settings: Staphylococcus aureus, MRSA
Experimental: as §1, §2, §3, §4, §5, §6

[12] = test system: S. aureus COL; experiment: IM032 staphyloxanthin production inhibition; format: cell-based; settings: Staphylococcus aureus, MRSA
Experimental: as §1, §2, §3, §4, §5, §6

[13] = test system: 10 different Staphylococcus aureus (S. aureus) strains; experiment: IM032 staphyloxanthin production inhibition, all tested strains; format: cell-based
Experimental: as §1
Compound IM032 was evaluated for its in vitro efficacy to inhibit staphyloxanthin production in 10 different Staphylococcus aureus (S. aureus) strains, SH1000, HG003, ATCC29213, ATCC700698, COL, JE2, LAC, USA300-3, Newman and ST239III.
as §2
The test item was dissolved at 44.9 mg/mL in DMSO at 37° C., aliquoted into several tubes, and stored at −20° C. until use. On the day of testing, a stock solution was serially diluted to testing concentrations with DMSO. […]
Each test item solution (6 μL) was combined with 0.6 mL of S. aureus culture in brain heart infusion broth (CFU per well=1×10^7). […] After centrifugation, 100 μL of supernatant was transferred to a 96-well cell culture plate and OD450 was measured. The relative pigment production at each tested concentration was calculated as follows: […]
The IC50 for each test was determined based on the calculated inhibition ratio from above with Prism 6.0 by employing a non-linear regression (four parameters) fitting method with assigned bottom and top at 0.05 and 0.95 respectively. […]

[14] = test system: S. aureus USA300; experiment: In vitro staphyloxanthin production inhibition by NP-16 analogues; format: cell-based, Staphylococcus aureus; settings: S. aureus USA300, methanol extract OD 450 nm, 300 nM to 700 nM
Experimental: Evaluation of NP-16 analogues in Staphyloxanthin production
The in vitro pigment inhibition studies were performed by S. aureus USA300 cultured in BHI with or without the presence of inhibitor compounds at 37° C. and 250 rpm for 36-48 hours. The bacteria were washed twice with PBS prior to the staphyloxanthin purification with methanol. The OD of the extracts were monitor at 450 nm using DTX880 multi-plate reader spectrophotometer (Beckman). The concentration range tested for the compounds were between 300 nM to 700 nM, and control groups were added with equal volume of DMSO.
The cytotoxicity of NP-16 and some of its analogues was tested against Raw 264.7 cells, and the cell tolerance of each compounds were documented in Table 3. Along with the in vitro staphyloxanthin production of the NP-16 analogues were being tested, the compounds can exert staphyloxanthin production inhibition. The staphyloxanthin from the overnight-cultured bacteria were extracted with methanol and quantified in via spectrophotometry. The results were presented in relative ratio to NP-16 in both the inhibition ratio as well as the TC50 (concentration for decreasing cell viability by 50%) in Table 3 (sample names correspond to those listed in Table 1).

Molecule `O=C(/C=C/c1ccccc1Br)Nc1ccc(S(=O)(=O)N2CCCCC2)cc1` [NP16-XL-016, 3-(6-bromophenyl)-N-[4-(1-piperidine-1-sulfonyl)phenyl]-acrylamide] has a solubility ([1]; 1:1 Labrasol ALF/PEG300, organic solvent or mixture) of 16.1 mg/mL (≈ 35.8 mM), a solubility ([1]; 1:1 Labrasol ALF/PEG400, organic solvent or mixture) greater than 15 mg/mL and a solubility ([1]; Labrasol ALF, oil or lipid) of 11.8 mg/mL (≈ 26.3 mM). The solubility ([1]; PEG300, organic solvent or mixture) was greater than 20 mg/mL, the solubility ([1]; PEG400, organic solvent or mixture) was greater than 20 mg/mL and the IC50 ([2]; Table 6) was 18 nM. For the same molecule, the IC50 ([2]; Table 8) was 30 ± 5 nM, the IC50 ([3]; MU3) was 1.8 nM and the IC50 ([3]; VISA) was 2.6 ± 1 nM. For the same molecule, the IC50 ([4]; Table 6) was 70 nM, the IC50 ([4]; Table 8) was 70.5 ± 6 nM and the IC50 ([5]; Table 7) was 21 nM. The IC50 ([5]; Table 8) was 23.7 ± 1 nM, the IC50 ([6]; MRSA / USA300, Table 7, USA300-3, MRSA (HA)) was 27 nM and the IC50 ([6]; MRSA / USA300, Table 8, USA300-3, HA-MRSA) was 42.8 ± 6 nM. It also gave an IC50 ([7]; Table 6) of 46 nM, an IC50 ([7]; Table 8) of 54.4 ± 4 nM and an IC50 ([8]; FPR3757, FPR3757, previous study) of 17 nM. For the same molecule, the IC50 ([8]; MRSA / USA300, Table 8, USA300 (FPR-3757), CA-MRSA) was 30.8 ± 5 nM, the IC50 ([8]; MRSA, Table 6, first experiment, FPR3757, MRSA (CA), positive control) was 20 nM and the IC50 ([8]; MRSA, Table 7, second experiment, FPR3757, MRSA (CA), positive control) was 28 nM. For the same molecule, the IC50 ([9]; / USA300) was 37.7 ± 4 nM, the IC50 ([9]; MRSA) was 26 nM and the IC50 ([10]; MRSA) was 27 nM. The IC50 ([10]; MRSA / USA300) was 43.6 ± 5 nM, the IC50 ([11]; Table 7, ST239III, MRSA (HA)) was 19 nM and the IC50 ([11]; Table 8, Clinical isolate ST239III, HA-MRSA) was 16.3 ± 8 nM. It also gave an IC50 ([12]; Table 6, MRSA (HA)) of 1.2 nM, an IC50 ([12]; Table 8, HA-MRSA) of 0.9 ± 1 nM and an IC50 ([13]; Staphylococcus aureus, all 10 tested strains, read-out: IC50 of staphyloxanthin production inhibition, range over tested strains) of 1.2 to 70 nM. The “bactericidal effect (reduction in optical density)” value ([13]; any concentration of IM032, up to 4,000 nM) was “A clear bactericidal effect as evidenced by a reduction in optical density was not observed” and the “Relative ratio to NP16 based on inhibition ratio” value [14] was 2.71.

Source: patent US11040949B2, “Compounds affecting pigment production and methods for treatment of bacterial diseases” (Versitech Limited, priority 2017, dated 2021)
